Laboratory results from patent US20080206311A1, “Sucrase Activity Inhibitor, Glucoamylase Activity Inhibitor and Food and Feed Containing the Same” (MITSUI SUGAR CO., LTD., priority 2005, published 2008).

Columns and labels:
maltase [1] = experiment: Maltase activity inhibition with rat small-intestinal enzyme liquid, substrate maltose; assay type: biochemical; conditions: 5% maltose + 5% test sample
Protocol: Palatinose (trade name: Palatinose IC, ex Shin Mitsui Sugar Co., Ltd.) (test sample) was used as a sample for investigating each enzyme activity inhibitory effect. Maltose and sucrose were used as substrates for maltase and sucrose, respectively. The test sample and the substrates were dissolved in 0.1 M phosphate buffer (pH 6.8) at the concentration shown in Table 1 below to prepare test solutions (Solutions 4 and 5). Also, the test sample or the substrates were dissolved in 0.1 M phosphate buffer (pH 6.8), respectively to at the concentration shown in Table 1 below to prepare control solutions (Solution 1 for the test sample and Solutions 2 and 3 for the substrates).
Two grams of rat small-intestinal acetone powder (ex Sigma Corporation) were dissolved in 20 ml of 0.1 M phosphate buffer (pH 6.8), left standing one day at 5° C., and subsequently subjected to centrifugal separation (8000 rpm×15 min.). The supernatant was filtered through a 0.8 μm membrane filter to obtain a small-intestinal enzyme liquid. This liquid contained a mixture of enzymes present in small intestine, such as sucrose, glucoamylase, maltase, and isomaltase. […]
The glucose concentration in each solution after the reaction was measured using the F-kit Glucose (ex Roche). A liberated glucose concentration (g/l) was calculated by subtracting the blank value (0.1 M phosphate buffer alone) and the concentration of glucose originally contained in the test sample from each glucose concentration measured.
Next, each of the liberated glucose concentration was input in the following equation to obtain decomposition inhibition ratio for maltase and sucrose. […] The decomposition inhibition ratio was determined as a measure for the inhibitory effect. […]
Each 5 ml of the aforementioned test solutions and control solutions was subjected to the enzymatic reaction in the same procedures as in Example 1. The liberated glucose concentration, the decomposition inhibition ratio for maltase and the decomposition inhibition ratio for sucrose were calculated for each solution after the reaction.

glucoamylase = experiment: Ratio of inhibitor to the substrate dextrin (Examples 10, 11); assay type: biochemical, rat
Protocol: Each 0.15 ml of a small intestinal enzyme solution was added to each 2.5 ml of the aforementioned 20 samples, each mixture, and placed in a water bath at 37° C. to allow reaction for 10 minutes while shaken at 60 strokes/min. At the end of the reaction, the mixture was heated in a boiling water bath for 3 min. for inactivation of the enzyme. As a blank, 0.15 ml of the intestinal enzyme solution was added to 0.1 M phosphate buffer (pH 6.8) and the enzyme was inactivated immediately.
After the reaction, the glucose concentration in each solution was measured using the F-kit Glucose (ex Roche) as in Example 1.
The procedures in Example 8 were repeated with the exception that sixteen samples with the concentrations shown in Table 13, Samples C-1 through C-16, were dissolved in 0.1 M phosphate buffer (pH 6.8) to a final volume of 2.5 ml.
The procedures in Example 8 were repeated with the exception that sixteen samples with the concentrations shown in Table 14, Samples D-1 through D-16, were dissolved in 0.1 M phosphate buffer (pH 6.8) to a final volume of 2.5 ml.

maltase [2] = conditions: maltose as substrate; Non-Patent Publication 4; cited from earlier work

OC[C@H]1O[C@H](OC[C@H]2OC(O)(CO)[C@@H](O)[C@@H]2O)[C@H](O)[C@@H](O)[C@@H]1O (stereo partly drawn) [palatinose, isomaltulose]
Maltase activity inhibitory effect (in words) (maltase [1]): has a maltase activity inhibitory effect | Liberated glucose concentration (maltase [1]; 37° C., 60 min): 4.757 ± 0.342 g/L | Decomposition inhibition ratio, %, against maltase (maltase [1]; Equation 1): 6% | Ratio of inhibitor added relative to the weight of dextrin at which the inhibitory effect on decomposition of dextrin was seen at all dextrin concentrations (glucoamylase; dextrin 0.5%, 2%, 5%, 10%, FIG. 8 (palatinose), FIG. 9 (palatinit)): above 10% | Inhibitory effect on decomposition of dextrin (FIG. 8) (glucoamylase; palatinose 5% relative to the weight of dextrin, dextrin concentration 10%): no inhibitory effect on decomposition of dextrin was seen | Maltase activity inhibitory effect (reported) (maltase [2]): have a maltase activity inhibitory effect
